Laboratory results reported in patent US5328900A, “Anti-thrombotic peptide and pseudopeptide derivatives” (Rhone-Poulenc Rorer Pharmaceuticals Inc., priority 1992, dated 1994).
Where a SMILES comes first, the peptide text is derived from it. [ ]: non-standard residue; d: D form. Aze = O=C(O)[C@@H]1CCN1; Inp = O=C(O)C1CCNCC1

Tests used:
[1] = biological target: T1, fibrinogen binding to thrombin-stimulated platelets (Homo sapiens, UniProt P05106+P08514); assay: Inhibition of radiolabeled (125I) fibrinogen binding assay
T1 construct: endogenous in cells; host or cells: washed platelets stimulated with human alpha-thrombin
T1 sequence (P08514 32-887 limits assumed): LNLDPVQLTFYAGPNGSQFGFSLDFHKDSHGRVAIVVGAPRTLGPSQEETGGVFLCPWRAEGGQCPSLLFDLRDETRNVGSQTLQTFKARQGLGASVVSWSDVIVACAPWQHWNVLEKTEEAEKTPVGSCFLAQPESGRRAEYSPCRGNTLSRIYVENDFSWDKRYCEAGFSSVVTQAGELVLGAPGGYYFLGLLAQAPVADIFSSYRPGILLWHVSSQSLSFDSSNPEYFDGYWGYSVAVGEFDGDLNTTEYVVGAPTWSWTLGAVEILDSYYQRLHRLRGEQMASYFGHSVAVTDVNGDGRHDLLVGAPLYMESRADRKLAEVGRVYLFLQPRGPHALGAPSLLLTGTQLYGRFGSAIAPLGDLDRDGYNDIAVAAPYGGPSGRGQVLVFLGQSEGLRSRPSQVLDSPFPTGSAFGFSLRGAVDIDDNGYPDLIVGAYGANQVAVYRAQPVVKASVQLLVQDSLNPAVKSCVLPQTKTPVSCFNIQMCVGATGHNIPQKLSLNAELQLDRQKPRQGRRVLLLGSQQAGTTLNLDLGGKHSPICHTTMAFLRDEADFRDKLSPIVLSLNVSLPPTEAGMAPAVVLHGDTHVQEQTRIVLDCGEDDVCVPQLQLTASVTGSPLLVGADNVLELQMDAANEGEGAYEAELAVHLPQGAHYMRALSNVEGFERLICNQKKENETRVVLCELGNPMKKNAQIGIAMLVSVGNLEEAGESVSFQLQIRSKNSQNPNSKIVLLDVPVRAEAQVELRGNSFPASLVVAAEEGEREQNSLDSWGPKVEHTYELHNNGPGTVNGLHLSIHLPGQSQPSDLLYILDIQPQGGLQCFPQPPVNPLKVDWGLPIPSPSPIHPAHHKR
T1 sequence (P08514 891-1039 partner limits assumed): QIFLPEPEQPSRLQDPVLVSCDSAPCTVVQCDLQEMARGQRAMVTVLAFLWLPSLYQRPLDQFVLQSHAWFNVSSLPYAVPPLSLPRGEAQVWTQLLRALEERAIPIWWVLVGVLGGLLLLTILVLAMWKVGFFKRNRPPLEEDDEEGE
T1 sequence (P05106 27-788): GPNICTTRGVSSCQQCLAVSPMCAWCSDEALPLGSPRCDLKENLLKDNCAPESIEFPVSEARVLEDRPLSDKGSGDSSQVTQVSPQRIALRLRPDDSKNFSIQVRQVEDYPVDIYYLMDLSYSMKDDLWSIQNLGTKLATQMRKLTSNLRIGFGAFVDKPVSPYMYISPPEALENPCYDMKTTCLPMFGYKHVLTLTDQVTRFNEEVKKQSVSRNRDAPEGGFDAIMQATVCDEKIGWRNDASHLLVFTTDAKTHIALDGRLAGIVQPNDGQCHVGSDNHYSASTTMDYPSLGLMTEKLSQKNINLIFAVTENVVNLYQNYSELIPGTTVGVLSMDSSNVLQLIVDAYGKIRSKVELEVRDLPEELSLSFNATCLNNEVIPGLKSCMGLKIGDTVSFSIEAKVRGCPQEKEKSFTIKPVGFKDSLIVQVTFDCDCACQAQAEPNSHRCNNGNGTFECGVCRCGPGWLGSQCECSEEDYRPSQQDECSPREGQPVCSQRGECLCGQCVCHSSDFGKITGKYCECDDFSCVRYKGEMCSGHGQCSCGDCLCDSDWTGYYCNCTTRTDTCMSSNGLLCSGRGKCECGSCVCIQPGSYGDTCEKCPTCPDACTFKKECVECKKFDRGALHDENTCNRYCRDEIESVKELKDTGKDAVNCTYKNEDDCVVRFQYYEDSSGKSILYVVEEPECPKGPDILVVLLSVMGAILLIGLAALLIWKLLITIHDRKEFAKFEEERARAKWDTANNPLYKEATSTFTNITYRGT
Protocol: I. Inhibition of Radiolabeled (^125 I) Fibrinogen Binding Assay, which is essentially based on the method described in Proc. Natl. Acad. Sci. USA Vol. 83, pp. 5708-5712, August 1986, and is as follows.
Platelets are washed free of plasma constituents by the albumin density-gradient technique. In each experimental mixture platelets in modified Tyrode's buffer are stimulated with human α-thrombin at 22°-25° C. for 10 minutes (3.125×10" platelets per liter and thrombin at […]). Hirudin is then added at a 25-fold excess for 5 minutes before addition of the radiolabeled ligand and any competing ligand. After these additions, the final platelet count in the mixture is 1×10"/liter. After incubation for an additional 30 minutes at 22°-25° C., bound and free ligand are separated by centrifuging 50 μl of the mixture through 300 μl of 20% sucrose at 12,000×g for 4 minutes. The platelet pellet is then separated from the rest of the mixture to determine platelet-bound radioactivity. Nonspecific binding is measured in mixtures containing an excess of unlabeled ligand. When binding curves are analyzed by Scatchard analysis, nonspecific binding is derived as a fitted parameter from the binding isotherm by means of a computerized program. […]

Human platelets = assay: Inhibition of fibrinogen-mediated platelet aggregation; type: cell-based; details: for IC50: thrombin-activated human platelets, rate of aggregation
Protocol: II. Inhibition of Fibrinogen-Mediated Platelet Aggregation, which is essentially based on the method described in Blood, Vol. 66, No. 4, October 1985, pp. 946-952, and is as follows.
Human platelets were isolated from freshly drawn whole blood and were suspended in 0.14 mol/L NaCl, 2.7 mmol/L […], 12 mmol/L NaHCO3, 0.42 mmol/L Na2 HPO4, 0.55 mmol/L glucose, and 5 mmol/L Hepes, pH 7.35 at 2×10^8 platelets/ml. The suspension was incubated at 37° C. An aliquot of 0.4 ml of platelet suspension was activated by human thrombin at a final concentration of 2 μg/ml of thrombin for one minute. After one minute the reaction was stopped by a thrombin inhibitor. Serial dilution of the compound being tested was then added to the activated platelet, the reaction was allowed to proceed for one minute, followed by the addition of human fibrinogen at a final concentration of […] of fibrinogen. Platelet aggregation was then recorded by an aggregometer. Rate of aggregation was used to calculate IC50.

Row | SMILES | Inhibition of 125I-fibrinogen binding, extent at 25 μM ([1]; 25 μM) [%] | Inhibition of Fibrinogen Mediated Platelet Aggregation % inhibition at 25 μM (Human platelets) [%] | IC50 (Human platelets) [µM] | IC50 ([1]; thrombin-stimulated washed platelets, 125I-fibrinogen 0.176 μmol/liter) [µM]
1 | CC(C)[C@H](NC(=O)[C@H](CC(=O)O)NC(=O)[C@@H]1CCN1C(=O)C1CCN(C(=N)N)CC1)C(=O)O [N-[2(S)-1-(amidinopiperidin-4-yl-carbonyl)-azetidin-2-yl-carbonyl]-L-aspartyl-L-valine] | 15 | 15 | > 200 | –
2 | CC(C)[C@H](NC(=O)[C@H](CC(=O)O)NC(=O)[C@@H]1CCN1C(=O)C1CCNCC1)C(=O)O [N-[2(S)-1-(piperidin-4-yl-carbonyl)azetidin-2-yl-carbonyl]-L-aspartyl-L-valine] (H-[Inp][Aze]DV-OH) | – | 47 | 29.6 | > 64
